Source: the NIST ThermoML archive (doi:10.1016/j.fluid.2006.03.014)

Details: Liquid

CC(C)(N)CO [2-amino-2-methylpropan-1-ol]
Details	vapor or sublimation pressure [kPa]
373.25 K	8
381.35 K	12
388.05 K	16
393.05 K	20
397.25 K	24
401.05 K	28
404.45 K	32
407.75 K	36
410.35 K	40
412.95 K	44
415.15 K	48
416.65 K	50.7
418.15 K	53.3
419.95 K	57.3
421.85 K	61.3
423.65 K	65.3
424.45 K	66.7
425.55 K	69.3
427.15 K	73.3
429.65 K	80
429.75 K	80
431.85 K	85.3
433.65 K	90.7
435.35 K	96
436.85 K	101.3
